The results in this text go back to publication PMC5607274, “An iterative compound screening contest method for identifying target protein inhibitors using the tyrosine-protein kinase Yes” (Scientific Reports, 2017).

SMILES strings stand for the structures.

The target of this experiment is T1, human recombinant Yes [a.a. 2–543 (end)] (Homo sapiens, UniProt P07947).
T1 construct: human recombinant Yes [a.a; 2–543 (end)]; purchased BPS Bioscience 40488
The experiment can be described thus: ADP-Glo kinase assay, inhibition rates of Yes phosphorylation activity (first and second screening). It is filed as biochemical. The settings on record: first screening; mean of n = 4 wells; 10 μmol L−1 compound. On the procedure: All inhibitory assays of the phosphorylation activity of Yes were performed in accordance with the Promega Technical Manual for the ADP-Glo™ Kinase Assay (Fitchburg, WI, USA. Catalog number: V9102). The human recombinant Yes [a.a. 2–543 (end)] was purchased from BPS Bioscience (catalog number: 40488). The details of the assay protocol and reagent information are given elsewhere.
The screening was conducted in three steps consisting of the first screening, the second screening, and the IC50 determination, as can be illustrated in Fig. 1b. First, we determined the inhibition rates of the 1,991 compounds. Each compound was placed in 4 wells of a 384-well plate. In total, 80 compounds were assayed on one plate and the other wells were used for positive and negative controls. The compounds were randomly placed on plates so that compounds proposed by one group were not placed on a plate together. A mean of four inhibition rates for each compound was compared to criteria for the first screening. […] Second, the inhibition rates of the screened compounds were determined on one plate using the same procedure of the first screening, where compounds were dissolved from fresh powder. […] Screened compounds were then evaluated for their IC50 values.
A general note: ADP-Glo turns the ADP formed in a reaction into a luminescent signal.

T1 sequence (P07947 2-543): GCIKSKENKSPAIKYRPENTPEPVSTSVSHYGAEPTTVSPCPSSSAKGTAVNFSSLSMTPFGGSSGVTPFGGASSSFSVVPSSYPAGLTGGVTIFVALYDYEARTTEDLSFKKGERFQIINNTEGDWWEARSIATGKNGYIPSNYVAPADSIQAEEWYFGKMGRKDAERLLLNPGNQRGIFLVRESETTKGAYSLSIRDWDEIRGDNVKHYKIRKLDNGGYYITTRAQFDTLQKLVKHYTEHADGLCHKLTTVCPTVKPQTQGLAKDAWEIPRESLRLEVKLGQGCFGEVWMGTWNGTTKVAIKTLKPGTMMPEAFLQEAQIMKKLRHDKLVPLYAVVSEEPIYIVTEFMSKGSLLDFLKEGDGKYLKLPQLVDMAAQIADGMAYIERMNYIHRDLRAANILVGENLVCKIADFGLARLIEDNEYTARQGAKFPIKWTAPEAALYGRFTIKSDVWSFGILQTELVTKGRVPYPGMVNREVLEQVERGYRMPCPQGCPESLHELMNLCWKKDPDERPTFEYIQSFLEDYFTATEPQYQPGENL

With `CN(Cc1ccc(OC(F)F)cc1)C(=O)CN1C(=O)NC(C)(c2ccccc2Br)C1=O` (stereo not shown) [Compound Z14158957], the “First screening IR (inhibition rate)” value turned out to be 23%.
In the case of `CCC1(c2ccc(F)cc2)NC(=O)N(CC(=O)Nc2ccc(C(=O)N(C)C)cc2)C1=O` (stereo not shown) [Compound Z14224841] it was 16%; in that of `Cc1cc(C)n(-c2ccc(Cl)c(C(=O)OCC(=O)c3ccc(F)c(F)c3)n2)n1` [Compound Z15431588], 20%; in that of `COc1ccc(/C=C2/CC(C)Cc3c2nc2ccccc2c3C(=O)OCC(N)=O)cc1` (stereo not shown) [Compound Z15674725], 30%.
`C/C(N)=C(\C#N)C(=O)CSc1nnc(-c2ccccc2F)n1Cc1ccccc1` [Compound Z15780020]: the “First screening IR (inhibition rate)” value is -17%.
The value for `COc1ccc(Nc2nc(COC(=O)CNS(=O)(=O)c3ccc(C)c(C)c3)cs2)cc1` [Compound Z16158532] was -1%; that for `O=C(CN1C(=O)NC(Cc2c[nH]c3ccccc23)C1=O)Nc1ccc(-c2ccccc2)cc1` (stereo not shown) [Compound Z16202306] was 6%.
The value for `CCOc1cc(N2CCOCC2)c(OCC)cc1NC(=O)CSc1nnc(-c2ccc3c(c2)OCO3)n1-c1ccccc1` [Compound Z16253844] was -3%; that for `Cc1cc(C(=O)CSc2nnc(-c3ccc4c(c3)OCO4)n2-c2ccccc2)c(C)n1C` [Compound Z16254213] was 6%.
The value for `O=C(CSc1nnc(-c2ccc3c(c2)OCO3)n1-c1ccccc1)c1ccc[nH]1` [Compound Z16254229] was 7%; that for `Cc1cccc(C(C)C)c1NC(=O)CSc1nc2ccc(Cl)cc2[nH]1` [Compound Z16257955] was 4%.
Take `Cc1noc(C)c1CSc1ncnc2sc3c(c12)CCC(C)C3` (stereo not shown) [Compound Z16316201]: the “First screening IR (inhibition rate)” value is -8%.
`NS(=O)(=O)c1ccc(CCNC(=O)CSc2nnc(-c3ccccc3F)n2CCc2ccccc2)cc1` [Compound Z16426742]: the “First screening IR (inhibition rate)” value is -1%.
The value for `O=C(CSc1nnc(-c2ccccc2F)n1CCc1ccccc1)c1ccc[nH]1` [Compound Z16427126] was -9%.
The value for `O=C(OCCOc1ccccc1Cl)c1cn2ccccc2n1` [Compound Z16593263] was 0%; that for `Cc1ccc(SCC(=O)OCC(=O)Nc2ccc3[nH]c(=O)[nH]c3c2)cc1C` [Compound Z16616292] was -13%; that for `Cc1cccc(C(C)C)c1NC(=O)CSc1nc2ccc(Cl)cc2c(=O)n1CC(C)C` [Compound Z16658902] was -5%.
In the case of `C=CCN1C(=O)c2ccc(C(=O)OCc3cn4ccccc4n3)cc2C1=O` [Compound Z16715300] it was 29%.
On to `Cc1noc(C)c1COC(=O)c1ccc2[nH]c(C)c(C)c2c1` [Compound Z17094388], for which the “First screening IR (inhibition rate)” value is reported as 4%.
The value for `COc1ccccc1NC(=O)c1ccc(NC(=O)COc2ccc(C3SCCS3)cc2)cc1` [Compound Z17289317] was 1%; that for `Fc1ccccc1-c1nc(SCc2cn3ccccc3n2)n[nH]1` [Compound Z17356722] was 0%.
In the case of `COCCCn1c(=O)c2ccccc2n2c(SCc3cn4ccccc4n3)nnc12` [Compound Z17893104] it was -35%.
The value for `CCCCCn1c(=O)c2ccccc2n2c(SCC(=O)NC(=O)NC3CCCC(C)C3C)nnc12` (stereo not shown) [Compound Z17895832] was -5%; that for `C=CCNc1nc(C(=O)OCc2csc(-c3ccccc3)n2)cs1` [Compound Z17964966] was 18%.
With `C=CCNc1nc(C(=O)OCCCn2c(=O)[nH]c3ccccc32)cs1` [Compound Z17965676], the “First screening IR (inhibition rate)” value worked out at 5%.
The value for `COc1cc(C(=O)OC(C)C(=O)NC(C)(C#N)C(C)C)ccc1Oc1ccc(Cl)cc1[N+](=O)[O-]` (stereo not shown) [Compound Z18025700] was 1%; that for `O=C(CSc1ccc2c(c1)OCCCO2)Nc1ccc2c(c1)CCC2` [Compound Z18212324] was 14%; that for `N#C/C(=C(/O)COC(=O)CCc1ccccc1)c1nc2ccccc2[nH]1` [Compound Z18264769] was 5%.
In the case of `O=C(COC(=O)c1ccccc1OCc1ccccc1)Nc1ccc2c(c1)CCC2` [Compound Z18387854] it was 26%; in that of `Cc1ccccc1Nc1nc(N)nc(CSCc2ccc(Cl)cc2)n1` [Compound Z18432818], 6%; in that of `Cc1ccccc1Nc1nc(N)nc(CSc2ccccc2Cl)n1` [Compound Z18459341], 17%.
The value for `Cn1nnnc1SCC(=O)c1c(-c2ccccc2)[nH]c2ccccc12` [Compound Z18519048] was 0%; that for `CC(Sc1nnnn1C)C(=O)Nc1ccc2c(c1)OCO2` (stereo not shown) [Compound Z18519758] was 5%.
With `Cc1cc(C)c(C(=O)COc2ncnc3ccccc23)cc1C` [Compound Z18537178], the “First screening IR (inhibition rate)” value was found to be 7%.
Take `COc1cccc(NC(=O)COc2ncnc3ccccc23)c1` [Compound Z18537695]: the “First screening IR (inhibition rate)” value was -1%.
The value for `Cc1cc(C(=O)COc2ncnc3ccccc23)c(C)n1CC(F)(F)F` [Compound Z18537891] was 6%; that for `NC(=O)c1cc(NC(=O)COC(=O)c2c3c(nc4ccccc24)/C(=C\c2ccccc2Cl)CC3)cc(C(N)=O)c1` [Compound Z18607575] was 10%; that for `CC(Sc1nc2nn(-c3ccccc3)c(=O)c-2c2n1CCCCC2)C(=O)NC(=O)NC1CCCCC1` (stereo not shown) [Compound Z18614891] was 7%.
In the case of `Cc1cc(C)c(C(=O)CSc2nnc(-c3c[nH]c4ccccc34)n2CC2CCCO2)c(C)c1` (stereo not shown) [Compound Z18647134] it was -1%; in that of `CC(Sc1nnc(-c2c[nH]c3ccccc23)n1CC1CCCO1)C(=O)Nc1ccc(N(C)C)cc1` (stereo not shown) [Compound Z18647898], 0%.
In the case of `O=C(CSc1nnc(-c2ccco2)o1)Nc1ccc2c(c1)CCC2` [Compound Z18650720], the “First screening IR (inhibition rate)” value is 15%.
The value for `Cc1ccc(-n2c(SCC(=O)Nc3ccc(N4CCOCC4)cc3)nnc2-c2cccnc2)c(C)c1` [Compound Z18666705] was 54%; that for `CCOc1ccc(-n2c(SCC(=O)c3ccc[nH]3)nnc2-c2ccccc2Cl)cc1` [Compound Z18672879] was 7%; that for `O=C(COC(=O)c1ccccc1NS(=O)(=O)c1ccc(F)cc1)NC1CCCc2ccccc21` (stereo not shown) [Compound Z18712040] was -7%.
Turning to `Cc1cc(Br)ccc1SCC(=O)OC/C(O)=C(\C#N)c1nc2ccccc2[nH]1` [Compound Z18738204], the “First screening IR (inhibition rate)” value is listed as 43%.
As to `N#C/C(=C(/O)COC(=O)c1cc(F)c(F)cc1Cl)c1nc2ccccc2[nH]1` [Compound Z18771813], the “First screening IR (inhibition rate)” value came out at 8%.
